In patent US9056844B2, “4-substituted-3-benzyloxy-bicyclo[3.1.0]hexane compounds as mGluR 2/3 antagonists” (Eli Lilly and Company, priority 2010, dated 2015):

Columns and labels:
[1] = target: T1, human mGlu2 receptors (Homo sapiens, UniProt Q14416); assay: mGlu2 receptor cAMP antagonist assay; assay type: cell-based; conditions: reversal of DCG IV (EC90) inhibition of forskolin-stimulated cAMP; AV12 cells
T1 construct: expressed in transfected cells; host or cells: AV12 cells, co-expressing rat EAAT1
Procedure: (§1) mGlu2 and mGlu3 Receptor cAMP Antagonist Assays
Antagonist activity is assayed in recombinant AV12 cells stably expressing human mGlu2 or mGlu3 receptors and the rat glutamate transporter EAAT1 (Excitatory Amino Acid Transporter 1). The cell lines are maintained by culturing in DMEM with high glucose and pyridoxine hydrochloride supplemented with 5% dialyzed fetal bovine serum (FBS), 1 mM sodium pyruvate, 1 mM HEPES and 1 mM L-glutamine; geneticin and hygromycin B are used as selection antibiotics.
Reversal of the inhibition of forskolin-stimulated cAMP production by test compounds is measured using homogeneous time resolved fluorescence technology (HTRF; Cisbio cat #62AM4PEB). The medium is removed and the cells are incubated with 100 μl cAMP stimulation buffer (STIM) for 30 minutes at 37° C. […] Cells are incubated at 37° C. for 20 minutes. To measure the cAMP levels, cAMP-d2 conjugate and anti cAMP-cryptate conjugate in lysis buffer are incubated with the treated cells at room temperature for 1 hour (mGlu2) or 1.5 hour (mGlu3). […] The raw data are converted to cAMP amount (pmole/well) using a cAMP standard curve generated for each experiment. Relative IC50 values are calculated from the top-bottom range of the concentration response curve using a four-parameter logistic curve fitting program (ActivityBase v5.3.1.22).

[2] = target: T2, human mGlu3 receptors (Homo sapiens, UniProt Q14832); assay: mGlu3 receptor cAMP antagonist assay; assay type: cell-based; conditions: reversal of DCG IV (EC90) inhibition of forskolin-stimulated cAMP; AV12 cells
T2 construct: expressed in transfected cells; host or cells: AV12 cells, co-expressing rat EAAT1
Procedure: as §1
Antagonist activity is assayed in recombinant AV12 cells stably expressing human mGlu2 or mGlu3 receptors and the rat glutamate transporter EAAT1 (Excitatory Amino Acid Transporter 1). The cell lines are maintained by culturing in DMEM with high glucose and pyridoxine hydrochloride supplemented with 5% dialyzed fetal bovine serum (FBS), 1 mM sodium pyruvate, 1 mM HEPES and 1 mM L-glutamine; geneticin and hygromycin B are used as selection antibiotics. Confluent cultures are grown at 37° C. in an atmosphere containing 6.5% CO2, and passaged biweekly. Cells are harvested using 0.25% trypsin, suspended in freeze media (FBS with 10% DMSO) at 10^7 cells/ml, and aliquots are stored in liquid nitrogen. Twenty-four hours before the assay, cells are plated at a density of 8,000-10,000 cells per well in a tissue culture treated, 96-well, half-area black plates (Costar 3875) in 50 μl of DMEM with high glucose and pyridoxine hydrochloride supplemented with 5% dialyzed FBS, 1 mM sodium pyruvate, 1 mM HEPES, 100 μg/ml ampicillin, and 250 μM (mGlu2) or 125 μM (mGlu3) of L-glutamine.
Reversal of the inhibition of forskolin-stimulated cAMP production by test compounds is measured using homogeneous time resolved fluorescence technology (HTRF; Cisbio cat #62AM4PEB). The medium is removed and the cells are incubated with 100 μl cAMP stimulation buffer (STIM) for 30 minutes at 37° C. (STIM buffer contains 500 ml HBSS, 1000 ml DPBS, 0.034% BSA, 1.67 mM HEPES and 500 μM IBMX (Sigma 15879).) Compounds are tested in 10-point concentration response curves using 3× serial dilution followed by further 40-fold dilution into STIM buffer. DCG IV (Tocris 0975) serves as the reference agonist. The final reaction mixture contains 1 μM (for mGlu2) or 3 μM (for mGlu3) of forskolin (Sigma F6886), DCG IV at its EC90, and up to 25 μM of test compound. Cells are incubated at 37° C. for 20 minutes. To measure the cAMP levels, cAMP-d2 conjugate and anti cAMP-cryptate conjugate in lysis buffer are incubated with the treated cells at room temperature for 1 hour (mGlu2) or 1.5 hour (mGlu3). The HTRF signal is detected using an EnVision plate reader (Perkin-Elmer) to calculate the ratio of fluorescence at […]. The raw data are converted to cAMP amount (pmole/well) using a cAMP standard curve generated for each experiment. Relative IC50 values are calculated from the top-bottom range of the concentration response curve using a four-parameter logistic curve fitting program (ActivityBase v5.3.1.22).

[3] = target: T3, human mGlu6 receptor (Homo sapiens, UniProt O15303); assay: mGlu6 cAMP antagonist assay (reference agonist L-AP4); assay type: cell-based; conditions: cAMP format
T3 construct: expressed in transfected cells; host or cells: AV12 cells, co-expressing rat EAAT1
Excerpt: FLIPR and cAMP Assays for mGlu Receptor Selectivity
The relative antagonist potencies of the compounds of the invention for the other human mGlu receptors can be assessed with either a cAMP assay or fluorometric calcium response assay (see for example Fell et al., JPET (in press)). Briefly, individual AV12 cell lines containing the rat EAAT1 glutamate transporter and stably expressing the human mGlu1, 2, 3, 4, 5, 6, & 8 receptors are used for these studies. The mGlu1 and 5 receptors are […], so they naturally signal through phospholipase C, producing a calcium flux response which can be used to measure receptor activation using a Fluorometric Imaging Plate Reader (FLIPR, Molecular Devices). The cell lines expressing the mGlu2, 3, 4, and 8 receptor are designed to express the Gα15 subunit so that these Gi-coupled receptors will generate a calcium flux response similar to the mGlu1 and 5 receptor expressing cell lines. The mGlu6 receptor is tested in a cAMP format using methods analogous to those developed for mGlu2 and mGlu3 above. These cell lines are maintained as previously described except that amounts of L-glutamine and selection agents (geneticin, hygromycin B, zeocin, and blasticidin) may vary depending on the cell line. Confluent cultures are passaged biweekly.
Antagonist activity in mGlu6 cells is measured using cAMP in a method analogous to that described above for mGlu2 and mGlu3 activity, except that the reference agonist was L-AP4 (Tocris). […] Relative IC50 and EC50 values are calculated from the top-bottom range of the concentration response curve using a four-parameter logistic curve fitting program (ActivityBase v5.3.1.22).

[4] = system: male NIH-Swiss mice; assay: Forced-swim test in mice (mFST); assay type: in vivo, mouse; conditions: for ED60: Mus musculus, immobility in last 4 min of 6 min; for Maximal Decrease (1 − compound/control) * 100%: immobility time
Excerpt: Forced-Swim Test in Mice (mFST)
mFST is an established in vivo assay for antidepressant activity (Li et al. J Pharmacol Exp Ther. 319(1):254-9, 2006.). […] The mFST was used to evaluate potential antidepressant-like activity of novel mGlu2/3 antagonists essentially as described in previously published methods (see for example, Li et al. J Pharmacol Exp Ther. 319(1):254-9, 2006.). Briefly, male NIH-Swiss mice (Harlan Sprague-Dawley, Indianapolis, Ind.) weighing between 25-30 g are used. Group housed animals are removed from the vivarium to the testing area in their own cages and allowed to adapt to the new environment for at least 1 hour before testing. Compounds where R^1 and R^2 are both hydrogen are dissolved in water with minimal NaOH added for dissolution and are administered i.p. Compounds where R^1 and/or R^2 are other than hydrogen are prepared on the day of use in 2.0-2.5% N-methyl-pyrrolidinone and then suspended in 1% HEC, 0.25% Tween 80, and 0.05% Dow antifoam, and administered orally. Mice are placed in a cylinder (diameter: 10 cm; height: 25 cm) filled with 6 cm of water (22-25° C.) for 6 min. The duration of immobility during the last 4 min. of the 6 min. period of the test was scored. A mouse is recorded as immobile when floating motionless or making only those movements necessary to keep its head above water.

[5] = system: mice; assay: mFST with SSRI (fluoxetine combination); assay type: in vivo, mouse; conditions: Example 10 17 mg/kg p.o., fluoxetine 10 mg/kg i.p., alone or combined
Procedure: mFST is an established in vivo assay for antidepressant activity (Li et al. J Pharmacol Exp Ther. 319(1):254-9, 2006.). […] J Pharmacol Exp Ther. 319(1):254-9, 2006.). Briefly, male NIH-Swiss mice (Harlan Sprague-Dawley, Indianapolis, Ind.) weighing between 25-30 g are used. Group housed animals are removed from the vivarium to the testing area in their own cages and allowed to adapt to the new environment for at least 1 hour before testing. Compounds where R^1 and R^2 are both hydrogen are dissolved in water with minimal NaOH added for dissolution and are administered i.p. […] Mice are placed in a cylinder (diameter: 10 cm; height: 25 cm) filled with 6 cm of water (22-25° C.) for 6 min. The duration of immobility during the last 4 min. of the 6 min. period of the test was scored. A mouse is recorded as immobile when floating motionless or making only those movements necessary to keep its head above water. The compounds of the invention may also be tested in combination with other compounds useful for the treatment of depressive disorders, as for example SSRI's, for their ability to enhance the antidepressant-like effects over that of either compound alone.

T2 sequence (Q14832 23-879): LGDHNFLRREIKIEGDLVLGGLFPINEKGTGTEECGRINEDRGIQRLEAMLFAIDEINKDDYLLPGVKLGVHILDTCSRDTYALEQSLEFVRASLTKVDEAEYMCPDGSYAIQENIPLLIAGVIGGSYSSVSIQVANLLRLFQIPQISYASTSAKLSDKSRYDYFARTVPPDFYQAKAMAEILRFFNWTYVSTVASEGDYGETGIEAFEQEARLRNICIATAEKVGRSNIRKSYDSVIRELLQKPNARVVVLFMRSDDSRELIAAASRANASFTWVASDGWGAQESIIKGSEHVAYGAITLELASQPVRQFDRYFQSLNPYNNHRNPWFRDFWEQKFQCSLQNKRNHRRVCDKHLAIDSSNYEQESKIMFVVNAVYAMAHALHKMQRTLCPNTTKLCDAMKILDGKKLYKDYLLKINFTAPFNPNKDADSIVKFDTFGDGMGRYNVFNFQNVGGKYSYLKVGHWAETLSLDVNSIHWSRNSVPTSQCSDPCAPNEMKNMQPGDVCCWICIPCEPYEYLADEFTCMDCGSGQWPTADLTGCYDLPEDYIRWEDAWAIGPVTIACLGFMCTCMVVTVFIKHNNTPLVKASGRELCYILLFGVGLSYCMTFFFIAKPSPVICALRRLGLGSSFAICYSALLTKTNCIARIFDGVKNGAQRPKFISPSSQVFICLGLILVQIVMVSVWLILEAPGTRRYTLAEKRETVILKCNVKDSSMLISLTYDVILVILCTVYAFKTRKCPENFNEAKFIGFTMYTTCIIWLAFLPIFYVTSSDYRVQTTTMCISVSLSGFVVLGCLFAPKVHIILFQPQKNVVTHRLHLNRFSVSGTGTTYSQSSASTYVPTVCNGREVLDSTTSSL
T3 sequence (O15303 25-877): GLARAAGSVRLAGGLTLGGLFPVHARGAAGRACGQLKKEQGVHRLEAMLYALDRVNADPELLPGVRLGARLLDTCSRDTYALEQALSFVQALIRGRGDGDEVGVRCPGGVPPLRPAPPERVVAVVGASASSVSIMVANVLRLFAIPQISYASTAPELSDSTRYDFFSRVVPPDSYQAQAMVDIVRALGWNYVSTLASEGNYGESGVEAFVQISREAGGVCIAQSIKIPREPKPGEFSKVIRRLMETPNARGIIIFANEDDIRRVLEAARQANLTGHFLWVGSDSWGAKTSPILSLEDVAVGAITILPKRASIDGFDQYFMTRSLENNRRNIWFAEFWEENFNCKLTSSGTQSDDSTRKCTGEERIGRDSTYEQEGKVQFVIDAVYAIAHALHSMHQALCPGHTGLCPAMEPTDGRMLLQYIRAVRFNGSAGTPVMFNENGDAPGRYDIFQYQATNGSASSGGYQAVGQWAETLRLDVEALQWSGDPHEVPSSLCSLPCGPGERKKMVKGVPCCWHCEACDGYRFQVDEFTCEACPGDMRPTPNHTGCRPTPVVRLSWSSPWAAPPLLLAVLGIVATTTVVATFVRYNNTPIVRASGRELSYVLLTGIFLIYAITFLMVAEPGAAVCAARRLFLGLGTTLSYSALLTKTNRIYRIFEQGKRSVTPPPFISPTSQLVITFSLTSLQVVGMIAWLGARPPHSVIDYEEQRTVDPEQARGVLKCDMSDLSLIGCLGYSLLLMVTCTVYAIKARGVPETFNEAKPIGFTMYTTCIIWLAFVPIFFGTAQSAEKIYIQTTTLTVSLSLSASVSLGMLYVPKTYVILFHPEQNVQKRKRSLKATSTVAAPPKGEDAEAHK
T1 sequence (Q14416 19-872): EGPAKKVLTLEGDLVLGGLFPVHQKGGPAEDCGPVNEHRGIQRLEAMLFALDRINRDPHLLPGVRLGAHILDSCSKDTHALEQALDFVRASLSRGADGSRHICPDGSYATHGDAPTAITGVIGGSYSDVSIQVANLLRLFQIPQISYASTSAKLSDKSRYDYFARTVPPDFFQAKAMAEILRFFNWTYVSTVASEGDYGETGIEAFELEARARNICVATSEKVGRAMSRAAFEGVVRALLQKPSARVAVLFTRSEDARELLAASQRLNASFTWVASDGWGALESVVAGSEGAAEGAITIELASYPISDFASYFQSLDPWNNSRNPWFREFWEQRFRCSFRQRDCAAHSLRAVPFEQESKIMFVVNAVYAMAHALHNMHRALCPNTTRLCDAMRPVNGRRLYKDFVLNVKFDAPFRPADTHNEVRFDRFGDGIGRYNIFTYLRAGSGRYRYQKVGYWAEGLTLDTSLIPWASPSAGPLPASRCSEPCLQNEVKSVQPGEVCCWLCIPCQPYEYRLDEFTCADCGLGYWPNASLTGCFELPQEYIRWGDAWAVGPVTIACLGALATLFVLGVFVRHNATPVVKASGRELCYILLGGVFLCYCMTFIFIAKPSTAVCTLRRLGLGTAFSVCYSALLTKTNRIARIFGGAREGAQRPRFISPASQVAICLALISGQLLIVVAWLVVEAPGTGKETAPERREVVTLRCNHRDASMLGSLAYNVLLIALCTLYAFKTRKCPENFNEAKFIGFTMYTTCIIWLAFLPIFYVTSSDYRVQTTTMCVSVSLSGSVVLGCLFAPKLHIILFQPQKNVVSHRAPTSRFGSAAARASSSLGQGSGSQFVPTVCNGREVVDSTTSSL

For `N[C@]1(C(=O)O)[C@@H]2[C@@H](C(=O)O)[C@@H]2[C@H](Sc2nccs2)[C@H]1OCc1ccc(Cl)c(Cl)c1` [Example 3, (1R,2R,3S,4S,5R,6R)-2-Amino-3-[(3,4-dichlorobenzyl)oxy]-4-(1,3-thiazol-2-ylsulfanyl)bicyclo[3.1.0]hexane-2,6-dicarboxylic acid], the IC50 [1] was 0.0254 ± 0.0048 µM, the IC50 [2] was 0.0108 µM and the IC50 [3] was 2.48 ± 0.295 µM. For the same compound, the ED60 ([4]; ip) was 8.2 mg/kg and the “Maximal Decrease (1 − compound/control) * 100%” value ([4]; i.p.) was 47%.

With `COC(=O)N[C@H]1[C@H]2[C@H](C(=O)O)[C@H]2[C@](N)(C(=O)O)[C@@H]1OCc1ccc(Cl)c(Cl)c1` [Example 5, (1S,2R,3R,4S,5R,6S)-2-Amino-3-[(3,4-dichlorobenzyl)oxy]-4-[(methoxycarbonyl)amino]bicyclo[3.1.0]hexane-2,6-dicarboxylic acid] the IC50 [1] was 0.0168 ± 0.0016 µM, the IC50 [2] was 0.0095 ± 0.0046 µM and the IC50 [3] was 1.58 ± 0.141 µM. The ED60 ([4]; ip) was 7.45 mg/kg and the “Maximal Decrease (1 − compound/control) * 100%” value ([4]; i.p.) was 56%.

`Cl.Cn1ncnc1S[C@H]1[C@H]2[C@H](C(=O)O)[C@H]2[C@](N)(C(=O)O)[C@@H]1OCc1ccc(Cl)c(Cl)c1` [Example 6, (1R,2R,3S,4S,5R,6R)-2-amino-3-[(3,4-dichlorobenzyl)oxy]-4-[(1-methyl-1H-1,2,4-triazol-5-yl)sulfanyl]bicyclo[3.1.0]hexane-2,6-dicarboxylic acid hydrochloride] showed an IC50 [1] of 0.0186 ± 0.0039 µM, an IC50 [2] of 0.0139 ± 0.0024 µM and an IC50 [3] of 1.36 ± 0.433 µM. For the same compound, the ED60 ([4]; ip) was 7.3 mg/kg and the “Maximal Decrease (1 − compound/control) * 100%” value ([4]; i.p.) was 47%.

`Cl.N[C@]1(C(=O)O)[C@@H]2[C@@H](C(=O)O)[C@@H]2[C@H](Sc2ncc[nH]2)[C@H]1OCc1ccc(Cl)c(Cl)c1` [Example 8, (1R,2R,3S,4S,5R,6R)-2-Amino-3-[(3,4-dichlorobenzyl)oxy]-4-(1H-imidazol-2-ylsulfanyl)bicyclo[3.1.0]hexane-2,6-dicarboxylic acid hydrochloride] gave an IC50 [2] of 0.026 ± 0.0005 µM, an IC50 [3] of 2.58 µM and an ED60 ([4]; ip) of 9.1 mg/kg. The “Maximal Decrease (1 − compound/control) * 100%” value ([4]; i.p.) was 41%.

For `CCOC(=O)OCOC(=O)[C@H]1[C@@H]2[C@H](O)[C@@H](OCc3ccc(Cl)c(Cl)c3)[C@@](N)(C(=O)OCOC(=O)OCC)[C@H]12.Cl` [Example 11, Bis{[(ethoxycarbonyl)oxy]methyl} (1S,2R,3S,4S,5R,6R)-2-amino-3-[(3,4-dichlorobenzyl)oxy]-4-hydroxybicyclo[3.1.0]hexane-2,6-dicarboxylate hydrochloride], the ED60 ([4]; po) was 51.5 mg/kg and the “Maximal Decrease (1 − compound/control) * 100%” value ([4]; p.o.) was 32.9%.

With `CC(C)C(=O)OCOC(=O)[C@H]1[C@@H]2[C@H](O)[C@@H](OCc3ccc(Cl)c(Cl)c3)[C@@](N)(C(=O)OCOC(=O)C(C)C)[C@H]12.Cl` [Example 12, Bis{[(2-methylpropanoyl)oxy]methyl} (1S,2R,3S,4S,5R,6R)-2-amino-3-[(3,4-dichlorobenzyl)oxy]-4-hydroxybicyclo[3.1.0]hexane-2,6-dicarboxylate hydrochloride] the ED60 ([4]; po) was over 28 mg/kg and the “Maximal Decrease (1 − compound/control) * 100%” value ([4]; p.o.) was 7%.

With `Cl.N[C@]1(C(=O)OCOC(=O)C2CC2)[C@@H]2[C@@H](C(=O)OCOC(=O)C3CC3)[C@@H]2[C@H](O)[C@H]1OCc1ccc(Cl)c(Cl)c1` [Example 13, Bis{[(cyclopropylcarbonyl)oxy]methyl} (1S,2R,3S,4S,5R,6R)-2-amino-3-[(3,4-dichlorobenzyl)oxy]-4-hydroxybicyclo[3.1.0]hexane-2,6-dicarboxylate hydrochloride] the ED60 ([4]; po) was 11.3 mg/kg and the “Maximal Decrease (1 − compound/control) * 100%” value ([4]; p.o.) was 62.8%.

In the case of `CNCCC(Oc1ccc(C(F)(F)F)cc1)c1ccccc1` (stereo not drawn) [Fluoxetine, fluoxetine, reference compound], the “Maximal Decrease (1 − compound/control) * 100%” value [5] is reported as 7.6% and the “Immobilization Time” value ([5]; vehicle 174) is reported as 161 s.
